Reference: patent US20200384072A1, “THERAPY OF IONIZING RADIATION-INDUCED DISORDERS” (SCK-CEN, priority 2019, published 2020)

Legend:
Cx43 hemichannels = molecular target: T1, Cx43 hemichannels (Homo sapiens, UniProt P17302); experiment: Extracellular ATP release after irradiation, TIME cells; assay type: cell-based
T1 construct: endogenous in cells; host or cells: TICAE and TIME cells (human endothelial cell lines)
Description: Hemichannels are an ATP release pathway and we therefore determined extracellular ATP after irradiation. To that purpose, TICAE and TIME cells were seeded in a 96-well plate at a density of 1×10^5 cells/well and 0.3×10^5 cells/well, respectively, in six to eight biological replicates. Three days later, cells reached 100% confluence. At 30 minutes before irradiation, cells were refreshed with 100 μl medium alone or with medium supplemented with 100 μM TAT-Gap19 (Genosphere Biotechnologies, Paris, France) to block the Cx43 hemichannels. For fractionated irradiation, cells were refreshed with 150 μl medium/well. At different time points after irradiation (1, 6 and 72 h), 1:5 ATP assay mix dissolved in ATP mix dilution buffer (Sigma-Aldrich Co. LCC, Diegem, Belgium) was added to each well. Extracellular ATP release was assessed by measuring the luminescence signal received after oxidation of luciferin and ATP to oxyluciferin and AMP using the CLARIOstar® microplate reader (BMG Labtech, Temse, Belgium). Experiments were corrected for baseline ATP signal in medium in the absence or presence of TAT-Gap19.

TICAE cells [1] = experiment: Intracellular ROS, CM-H2DCFDA IncuCyte live cell imaging, TICAE cells; assay type: cell-based, human; conditions: 100 μM TAT-Gap19, 0.1 and 5 Gy, 45 min p.i.
Description: In order to further assess intracellular ROS production, IncuCyte live cell imaging was used to have fast imaging in large number of replicates over multiple time points. TICAE and TIME cells were seeded in 96-well plate in 16 replicates at a density of 10000 cells/well. Three days later, cells reached 100% confluence. At 30 minutes before irradiation, a fresh MesoEndo Cell Growth Medium without phenol red (Sigma-Aldrich Co. LCC, Diegem, Belgium) supplemented with 10 μmol/L of the CM-H2DCFDA dye (Sigma-Aldrich Co. LCC, Diegem, Belgium) was added to the cells, with or without 100 μM TAT-Gap19 (Genosphere Biotechnologies, Paris, France). Fluorescence signals were measured at 45 min, 2 h and 3 h after irradiation (CM-H2DCFDA dye became saturated due to photoactivaton, and leaked outside the cells after this time) using the IncuCyte ZOOM® system (Essen BioScience, Ann Arbor, Mich., USA), 10× objective and FITC filter. […] Images were analysed making use of the software package provided by the manufacturer; we used a training set of images from different doses to define the image processing procedure. The so called Top-Hat background subtraction method was applied by measuring the radius of the fluorescence object (30 μm), and adjust a threshold of 1.5 (above the local background fluorescent intensity level), as described in IncuCyte™ Background Fluorescence Technical Note. […]

TICAE cells [2] = experiment: Cell death, Annexin V and Caspase 3/7 live cell imaging, TICAE cells; assay type: cell-based, human
Description: (§1) TICAE and TIME cells were seeded in 96 well plates at a density of 10000 cells/well in 8 biological replicates. After three days, cells were at 100% confluence. At 30 minutes before X-ray exposure, cells were refreshed with 200 μl medium supplemented with Caspase 3/7 reagent (1:1000 dilution) and Annexin V reagent (1:200 dilution) (Essen Bioscience, United Kingdom) with or without 100 μM TAT-Gap19 (Genosphere Biotechnologies, Paris, France). Fluorescence signals were measured from 4 h until 100 h after irradiation by imaging every 2 hours using the IncuCyte ZOOM® system (Essen BioScience, Ann Arbor, Mich., USA). Different channels (TRITC, FITC and phase contrast) and a 10× objective were used. Spectral unmixing set as 8% of red removed from green was applied. The IncuCyte software's processing definition was set to recognize red (Annexin V) and green (Caspase 3/7) stained cells, making use of the Top-Hat background subtraction method. Fluorescence signal was normalized to cell count.

TIME cells [3] = experiment: Cell death, Annexin V and Caspase 3/7 live cell imaging, TIME cells; assay type: cell-based, human
Description: as §1

TIME cells [4] = experiment: Senescence-associated β-galactosidase CPRG assay, TIME cells; assay type: cell-based, human
Description: TICAE and TIME cells were seeded in 96 well plates at a density of 10000 cells/well in 16 replicates. Three days after, cells were at 100% confluent. At 30 minutes before X-ray exposure, the cells were refreshed with 150 μl medium alone or with medium supplemented with 100 μM TAT-Gap19 (Genosphere Biotechnologies, Paris, France). For 7 d and 9 d post irradiation experiments, the medium was refreshed once, while for 14 d post irradiation experiment the medium was refreshed twice with 200 μl medium alone or with medium supplemented with 100 μM TAT-Gap19. At 7, 9 and 14 days post irradiation, cell number was determined using an Incucyte® ZOOM life cell analysis system and related software (Essen Bioscience, Hertfordshire, United Kingdom). Afterwards, the senescence associated β-galactosidase activity in the cells was determined using the chlorophenol red β-D-galactopyranoside (CPRG) assay as described previously. The cells were washed with PBS and lysed using M-PER™ buffer (Thermo Fisher Scientific, Asse, Belgium). Subsequently, 1×CPRG substrate (2 mM Chloropenol Red β-D-galactopyranoside in CPRG assay buffer containing 50 mM KPO4, 1 mM MgCl2, pH 6) (Sigma-Aldrich, Overijse, Belgium) was added to each well and the plates incubated for 18 h at 37° C. without CO2. A CLARIOstar® microplate reader (BMG Labtech, Temse, Belgium) was used to measure the absorbance at 570 nm.

[5] = 100 μM TAT-Gap19, 0 Gy and 0.1 Gy, from 4-16 h p.i. until the end
[6] = 100 μM TAT-Gap19, 5 Gy, from 12 h p.i. until end of recording (100 h)

T1 sequence (P17302 whole entry): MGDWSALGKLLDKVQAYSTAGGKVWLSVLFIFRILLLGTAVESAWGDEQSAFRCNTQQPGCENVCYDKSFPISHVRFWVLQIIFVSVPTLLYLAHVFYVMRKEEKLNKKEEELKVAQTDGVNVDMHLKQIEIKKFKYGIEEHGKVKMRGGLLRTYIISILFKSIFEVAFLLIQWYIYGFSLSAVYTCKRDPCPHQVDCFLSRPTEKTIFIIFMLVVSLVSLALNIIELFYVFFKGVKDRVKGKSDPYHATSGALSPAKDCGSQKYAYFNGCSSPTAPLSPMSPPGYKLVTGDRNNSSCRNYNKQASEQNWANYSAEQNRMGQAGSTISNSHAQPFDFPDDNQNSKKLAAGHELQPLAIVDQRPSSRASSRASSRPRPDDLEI

TAT-Gap19: connexin mimetic peptide, amino-acids 128-136 of the CL of Cx43 (SEQ ID NO: 2), Gap19 linked to TAT sequence; Cx43 hemichannel inhibitor (YGRKKRRQRRRKQIEIKKFK)
radiation-induced ATP release (Cx43 hemichannels; 100 μM TAT-Gap19, fractionated irradiation 0.1 and 5 Gy, 72 h p.i.): significantly inhibited the 5 Gy responses only
radiation-induced ATP release (Cx43 hemichannels; 100 μM TAT-Gap19, single 0.1 Gy, 1 h p.i.): no inhibition was observed
radiation-induced ATP release (Cx43 hemichannels; 100 μM TAT-Gap19, single 0.1 and 5 Gy, 1, 6, 72 h p.i., most cases): significantly inhibited the radiation-induced ATP release
ROS production (IncuCyte) (TICAE cells [1]): significantly reduced ROS production at both doses
Annexin V (TICAE cells [2]; [5]): significantly reduced
Caspase 3/7 activity (TICAE cells [2]; [5]): significantly reduced
Annexin V (TICAE cells [2]; [6]): significantly reduced
Caspase 3/7 activity (TICAE cells [2]; [6]): significantly reduced
Annexin V (TIME cells [3]; 100 μM TAT-Gap19, 0 Gy, 12-24 h p.i. time window): transiently reduced Annexin V
Annexin V elevation (TIME cells [3]; 100 μM TAT-Gap19, 5 Gy, 4-48 h p.i. time window): significantly reduced Annexin V elevation
SA β-gal activity (TIME cells [4]; 100 μM TAT-Gap19, 0 Gy, 0.1 Gy and 5 Gy, 7 d p.i.): significantly reduced SA β-gal activity in all conditions
SA β-gal activity (radiation responses) (TIME cells [4]; 100 μM TAT-Gap19, 0.1 Gy and 5 Gy, 14 d p.i.): significantly inhibited these responses
SA β-gal activity (TIME cells [4]; 100 μM TAT-Gap19, 5 Gy, 9 d p.i.): significantly reduced SA β-gal activity
SA β-gal activity (TIME cells [4]; 100 μM TAT-Gap19, control condition, 9 d p.i.): unexpectedly increased SA β-gal activity
